Patent US20160297830A1, “NOVEL COMPOUNDS USEFUL FOR THE TREATMENT OF BACTERIAL INFECTIOUS DISEASES” (GALAPAGOS NV, priority 2013, published 2016)
Converted amounts (≈) assume the structure as drawn. Read-outs that look alike come from different tables or passages of the source.

Columns and labels:
[1] = tested on: H. influenza Hi47 clinical strain, Ampicillin Resistant; experiment: organism not typed; format: cell-based; details: read-out: MIC Hi47
[2] = tested on: E. coli Ec113 efflux pump KO; experiment: microbe, parasite or virus in culture; format: cell-based; details: Escherichia coli, read-out: MIC Ec113 efflux pump KO
[3] = tested on: H. influenza Hi106 ATCC 51907; experiment: organism not typed; format: cell-based; details: read-out: MIC Hi106
[4] = target: DNA Polymerase IIIα (DnaE) from Staphylococcus aureus (Staphylococcus aureus, UniProt Q6GG04); experiment: biochemical
[5] = tested on: S. aureus Sa2 clinical strain NCIMB 41953, MRSA; experiment: microbe, parasite or virus in culture; format: cell-based; details: Staphylococcus aureus, read-out: MIC Sa2
DNA III Polymerase E = DNA III Polymerase E (Escherichia coli, UniProt P10443); experiment: In vitro activity against DNA III Polymerase E, E. coli; format: biochemical
Procedure: A radioactive filterplate assay was used to assess inhibitory activity of compounds on DNA Polymerase IIIα. Five μL of a dilution series of compound, starting from 100 μM highest concentration, 1/5 dilution, was added to the wells of a 96 well plate. Recombinant enzyme was diluted to 0.47 μg/mL in a buffer containing 20 mM Tris pH7.5, 8 mM DTT, 10 mM MgOAc, 0.05% CHAPS and 10 μL thereof was added to the compound dilutions. The reaction was started with the addition of 10 μL substrate in the same buffer, containing activated calf thymus DNA (Sigma, D4522), dATP, dGTP, dCTP, dTTP (Invitrogen) and [α-33P]-dTTP (Perkin Elmer, NEG605H001) at a concentration of 62.5 μg/mL, 50 nM and 7.5 μCi/mL respectively. The mixture was incubated at 30° C. for 120 minutes and terminated by addition of phosphoric acid. Samples were transferred to filter plates and incorporated radioactivity was measured by the Topcount. Data were converted to percent inhibition with respect to positive and negative controls. IC50 values were calculated using Graph Prism™ software.

[6] = tested on: H. influenza Hi10 clinical strain; experiment: organism not typed; format: cell-based; details: read-out: MIC Hi10
[7] = tested on: H. influenza Hi3 ATCC 31517; experiment: organism not typed; format: cell-based; details: read-out: MIC Hi3
E. coli Ec1 ATCC 25922 = experiment: Antibacterial activity assay (MIC), E. coli Ec1; format: cell-based; details: Escherichia coli
S. aureus Sa4 NCTC 6571 = experiment: Antibacterial activity assay (MIC), S. aureus Sa4; format: cell-based; details: Staphylococcus aureus
[8] = tested on: E. coli Ec50 efflux pump KO; experiment: microbe, parasite or virus in culture; format: cell-based; details: Escherichia coli, read-out: MIC Ec50 efflux pump KO
[9] = tested on: S. aureus Sa26 ATCC 25923; experiment: Antibacterial activity assay (MIC), S. aureus Sa26; format: cell-based; details: Staphylococcus aureus
S. aureus Sa1 ATCC 13709 = experiment: microbe, parasite or virus in culture; format: cell-based; details: Staphylococcus aureus
[10] = DNA polymerase III, E. coli, read-out: IC50 semiquantitative scoring, E. coli
[11] = ATCC25922, E. coli Ec1 ATCC 25922, sensitive strain, read-out: MIC Ec1
[12] = NCTC6571, S. aureus Sa4 NCTC 6571, sensitive strain, read-out: MIC Sa4
[13] = ATCC25923, read-out: MIC Sa26 + 10% SH, S. aureus Sa26 + 10% SH
[14] = ATCC25923, read-out: MIC Sa26 + 50% SH, S. aureus Sa26 + 50% SH
[15] = ATCC25923, S. aureus Sa26 ATCC 25923, sensitive strain, Mueller-Hinton Broth, 37° C., read-out: MIC Sa26
[16] = ATCC13709, S. aureus Sa1 ATCC 13709, sensitive strain, Mueller-Hinton Broth, 37° C., read-out: MIC Sa1
[17] = ATCC25923, read-out: MIC Sa26 + 10% SH
[18] = ATCC25923, read-out: MIC Sa26 + 50% SH

DNA Polymerase IIIα (DnaE) from Staphylococcus aureus, sequence (Q6GG04 1-1022): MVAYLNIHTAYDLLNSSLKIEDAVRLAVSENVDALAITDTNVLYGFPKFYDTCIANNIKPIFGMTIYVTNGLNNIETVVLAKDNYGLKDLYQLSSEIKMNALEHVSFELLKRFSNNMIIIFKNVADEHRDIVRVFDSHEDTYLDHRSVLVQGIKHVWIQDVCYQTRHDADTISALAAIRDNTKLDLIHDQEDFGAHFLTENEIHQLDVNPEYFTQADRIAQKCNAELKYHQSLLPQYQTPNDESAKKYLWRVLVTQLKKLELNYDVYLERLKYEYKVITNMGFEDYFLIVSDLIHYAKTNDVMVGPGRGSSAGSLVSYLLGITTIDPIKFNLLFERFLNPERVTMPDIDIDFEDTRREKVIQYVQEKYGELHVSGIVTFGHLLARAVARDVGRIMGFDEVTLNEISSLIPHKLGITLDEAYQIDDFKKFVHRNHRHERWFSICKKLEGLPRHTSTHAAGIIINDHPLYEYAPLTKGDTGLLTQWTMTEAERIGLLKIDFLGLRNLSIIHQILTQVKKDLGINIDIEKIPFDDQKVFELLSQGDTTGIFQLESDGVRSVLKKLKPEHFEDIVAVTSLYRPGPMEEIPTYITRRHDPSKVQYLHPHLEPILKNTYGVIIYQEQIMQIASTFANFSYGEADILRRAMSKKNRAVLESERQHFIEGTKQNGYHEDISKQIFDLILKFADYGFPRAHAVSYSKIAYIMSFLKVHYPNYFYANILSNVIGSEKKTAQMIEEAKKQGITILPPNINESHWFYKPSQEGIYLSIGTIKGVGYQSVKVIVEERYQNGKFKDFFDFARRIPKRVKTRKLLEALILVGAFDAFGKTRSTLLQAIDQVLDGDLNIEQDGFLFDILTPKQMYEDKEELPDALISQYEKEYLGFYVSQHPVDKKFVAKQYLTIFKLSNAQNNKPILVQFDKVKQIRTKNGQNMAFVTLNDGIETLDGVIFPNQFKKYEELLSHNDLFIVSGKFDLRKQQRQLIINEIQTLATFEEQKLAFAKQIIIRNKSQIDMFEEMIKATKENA
DNA III Polymerase E, sequence (P10443 whole entry): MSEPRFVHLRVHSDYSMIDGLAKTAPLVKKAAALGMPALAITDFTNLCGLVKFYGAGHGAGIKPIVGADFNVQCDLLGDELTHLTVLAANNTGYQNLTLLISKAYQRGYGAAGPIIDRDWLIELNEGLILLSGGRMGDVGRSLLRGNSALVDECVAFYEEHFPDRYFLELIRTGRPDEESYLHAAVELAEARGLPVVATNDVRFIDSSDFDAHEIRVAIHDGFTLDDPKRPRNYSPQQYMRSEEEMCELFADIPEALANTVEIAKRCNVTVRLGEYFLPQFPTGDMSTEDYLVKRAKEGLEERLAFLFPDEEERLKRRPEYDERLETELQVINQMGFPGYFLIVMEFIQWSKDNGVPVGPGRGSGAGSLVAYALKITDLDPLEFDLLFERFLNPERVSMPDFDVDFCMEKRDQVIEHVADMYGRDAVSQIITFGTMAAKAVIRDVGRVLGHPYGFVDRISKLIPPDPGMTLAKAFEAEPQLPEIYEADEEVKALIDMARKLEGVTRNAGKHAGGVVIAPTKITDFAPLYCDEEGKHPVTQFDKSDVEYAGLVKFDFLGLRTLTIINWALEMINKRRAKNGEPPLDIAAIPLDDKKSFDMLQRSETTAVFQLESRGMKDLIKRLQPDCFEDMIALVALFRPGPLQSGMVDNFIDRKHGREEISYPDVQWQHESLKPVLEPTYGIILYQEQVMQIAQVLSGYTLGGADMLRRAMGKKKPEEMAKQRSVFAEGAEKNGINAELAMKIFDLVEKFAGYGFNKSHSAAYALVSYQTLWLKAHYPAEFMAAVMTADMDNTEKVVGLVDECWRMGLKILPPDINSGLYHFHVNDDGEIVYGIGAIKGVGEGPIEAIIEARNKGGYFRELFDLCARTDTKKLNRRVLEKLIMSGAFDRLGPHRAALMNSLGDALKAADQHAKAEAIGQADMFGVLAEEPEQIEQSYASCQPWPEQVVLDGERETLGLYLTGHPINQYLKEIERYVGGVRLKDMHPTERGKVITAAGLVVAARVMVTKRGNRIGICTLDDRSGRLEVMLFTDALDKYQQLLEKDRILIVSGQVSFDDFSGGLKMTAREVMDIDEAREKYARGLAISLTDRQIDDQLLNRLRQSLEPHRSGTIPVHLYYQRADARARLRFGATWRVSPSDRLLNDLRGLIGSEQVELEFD

SMILES: COCC[C@H]1OC(=O)[C@H](COC)[C@H]2C=C[C@H]3[C@H]4O[C@]2(/C(C)=C/[C@H]1C)[C@@H]3[C@H](O)[C@@H](COC)[C@H]4O [Compound 17, 17-Deoxybranimycin]
- MIC [1]: > 64 µg/mL
- MIC [2]: 8 µg/mL (≈ 17.1 µM)
- MIC [3]: > 64 µg/mL
- IC50 ([4]; DNA polymerase III, S. aureus, read-out: IC50 semiquantitative scoring, S. aureus): 0.00214 to 2.14 µM
- MIC [5]: > 64 µg/mL
- IC50 (DNA III Polymerase E; [10]): > 21.4 µM
- MIC [6]: > 64 µg/mL
- MIC [7]: > 64 µg/mL
- MIC (E. coli Ec1 ATCC 25922; [11]): > 64 µg/mL
- MIC (S. aureus Sa4 NCTC 6571; [12]): > 64 µg/mL
- MIC [8]: > 64 µg/mL
- MIC [9, 13]: > 64 µg/mL
- MIC [9, 14]: > 64 µg/mL
- MIC [9, 15]: > 64 µg/mL
- MIC (S. aureus Sa1 ATCC 13709; [16]): > 64 µg/mL

SMILES: COC[C@@H]1[C@@H](O)[C@@H]2[C@H]3C=C[C@@H]4[C@@H](COC)C(=O)O[C@H]([C@H](O)COC)[C@H](C)/C=C(\C)[C@@]24O[C@H]3[C@@H]1OC(=O)c1cnco1 [Compound 14, 8-O-Oxazole-5′ carbonylbranimycin]
- MIC [1]: > 64 µg/mL
- MIC [2]: 16 µg/mL (≈ 27.7 µM)
- MIC [3]: > 64 µg/mL
- IC50 [4]: 1.73 to 17.3 µM
- MIC [5]: > 64 µg/mL
- IC50 (DNA III Polymerase E; [10]): > 17.3 µM
- MIC [6]: > 64 µg/mL
- MIC [7]: > 64 µg/mL
- MIC (E. coli Ec1 ATCC 25922; ATCC25922, read-out: MIC Ec1): > 64 µg/mL
- MIC (S. aureus Sa4 NCTC 6571; NCTC6571, read-out: MIC Sa4): > 64 µg/mL
- MIC [8]: > 64 µg/mL
- MIC ([9]; ATCC25923, read-out: MIC Sa26): > 64 µg/mL
- MIC [9, 17]: > 64 µg/mL
- MIC [9, 18]: > 64 µg/mL
- MIC (S. aureus Sa1 ATCC 13709; ATCC13709, read-out: MIC Sa1): > 64 µg/mL

SMILES: COC[C@@H]1[C@@H](O)[C@@H]2[C@H]3CC[C@@H]4[C@@H](COC)C(=O)O[C@H]([C@H](O)COC)[C@H](C)/C=C(\C)[C@@]24O[C@H]3[C@@H]1OC(=O)c1ccc[nH]1 [Compound 16, 4,5-Dihydro-8-O-1H-pyrrole-2′-carbonylbranimycin]
- MIC [1]: > 64 µg/mL
- MIC [2]: 4 µg/mL (≈ 6.92 µM)
- MIC [3]: > 64 µg/mL
- IC50 [4]: 0.00173 to 1.73 µM
- MIC [5]: 4 µg/mL (≈ 6.92 µM)
- IC50 (DNA III Polymerase E; [10]): > 17.3 µM
- MIC [6]: > 64 µg/mL
- MIC [7]: > 64 µg/mL
- MIC (E. coli Ec1 ATCC 25922; ATCC25922, read-out: MIC Ec1): > 64 µg/mL
- MIC (S. aureus Sa4 NCTC 6571; NCTC6571, read-out: MIC Sa4): 4 µg/mL (≈ 6.92 µM)
- MIC [8]: > 64 µg/mL
- MIC ([9]; ATCC25923, read-out: MIC Sa26): 8 µg/mL (≈ 13.8 µM)
- MIC [9, 17]: 8 µg/mL
- MIC [9, 18]: 8 µg/mL
- MIC (S. aureus Sa1 ATCC 13709; ATCC13709, read-out: MIC Sa1): 8 µg/mL (≈ 13.8 µM)

SMILES: COC[C@@H]1[C@@H](O)[C@@H]2[C@H]3C=C[C@@H]4[C@@H](COC)C(=O)O[C@H](C(C)(O)COC)[C@H](C)/C=C(\C)[C@@]24O[C@H]3[C@@H]1OC(=O)c1ccc[nH]1 (stereo partly drawn) [Compound 24, 17-Methyl-8-O-1H-pyrrole-2′-carbonylbranimycin]
- MIC [1]: > 64 µg/mL
- MIC [2]: 2 µg/mL (≈ 3.39 µM)
- MIC [3]: > 64 µg/mL
- IC50 [4]: 0.0017 to 1.7 µM
- MIC [5]: 2 µg/mL (≈ 3.39 µM)
- IC50 (DNA III Polymerase E): > 17 µM
- MIC [6]: > 64 µg/mL
- MIC [7]: > 64 µg/mL
- MIC (E. coli Ec1 ATCC 25922; [11]): > 64 µg/mL
- MIC (S. aureus Sa4 NCTC 6571; [12]): 2 µg/mL (≈ 3.39 µM)
- MIC [8]: 1 µg/mL (≈ 1.7 µM)
- MIC [9, 13]: 4 µg/mL
- MIC [9, 14]: 4 µg/mL
- MIC [9, 15]: 4 µg/mL (≈ 6.78 µM)
- MIC (S. aureus Sa1 ATCC 13709; [16]): 4 µg/mL (≈ 6.78 µM)

SMILES: COC[C@@H](O)[C@H]1OC(=O)[C@H](COC)[C@H]2C=C[C@H]3[C@H]4O[C@]2(/C(C)=C/[C@H]1C)[C@@H]3[C@H](O)[C@@H](C)[C@H]4O [Compound 1, Baleomycin]
- MIC [1]: 64 µg/mL (≈ 141 µM)
- MIC [2]: 0.5 µg/mL (≈ 1.1 µM)
- MIC [3]: 64 µg/mL (≈ 141 µM)
- IC50 [4]: 2.21 to 22.1 µM
- MIC [5]: > 64 µg/mL
- IC50 (DNA III Polymerase E): 2.21 to 22.1 µM
- MIC [6]: > 64 µg/mL
- MIC [7]: > 64 µg/mL
- MIC (E. coli Ec1 ATCC 25922; [11]): > 64 µg/mL
- MIC (S. aureus Sa4 NCTC 6571; [12]): > 64 µg/mL
- MIC [8]: 2 µg/mL (≈ 4.42 µM)
- MIC [9, 13]: > 64 µg/mL
- MIC [9, 14]: > 64 µg/mL
- MIC [9, 15]: > 64 µg/mL
- MIC (S. aureus Sa1 ATCC 13709; [16]): > 64 µg/mL
